Here are results for 20 compounds from patent US8575201B2 (Boehringer Ingelheim International GmbH, priority 2010, dated 2013).

As a reminder, the IC50 is the midpoint of a concentration-inhibition curve.

Assay [1] concerns synthesis of LTB4 in human whole blood. The assay can be described thus: Human whole blood LTB4 production inhibition assay. It counts as cell-based. The settings on record: calcimycin stimulated, read-out: hWB LTB4 IC50. The procedure: Compounds are additionally tested in a human whole blood assay to determine their ability to inhibit the synthesis of LTB4 in a cellular system. Compounds are combined with heparinized human whole blood and incubated for 15 minutes at 37° C. Calcimycin (20 μM final, prepared in phosphate-buffered saline, pH 7.4) is then added and the mixture is incubated for another 30 minutes at 37° C. The samples are centrifuged for 5 min at low speed (1500×g) and the plasma layer is removed. Plasma LTB4 concentrations are then measured using an antibody-based homogenous time-resolved fluorescence method (CisBio, Bedford, Mass.).

Assay [2] concerns the target recombinant human FLAP protein (Homo sapiens (Human), UniProt P20292). The assay can be described thus: FLAP binding assay (Scintillation Proximity Assay, displacement of [125I]L-691,831). The note with it: read-out: FLAP SPA IC50. The procedure: Assessment of Biological Properties 1. Binding Assay: Compounds are assessed for the ability to bind to FLAP in a binding assay that measures compound-specific displacement of an iodinated (^125I) FLAP inhibitor via a Scintillation Proximity Assay format (adapted from S. Charleson et al., Mol. Pharmacol., 1992, 41, 873-879). […] The cells are lysed with a Dounce homogenizer and the material is centrifuged at 10,000×g for 10 minutes. The supernatant is then collected and centrifuged at 100,000×g for 60 minutes. To prepare membrane protein for an assay, an aliquot of the 100,000×g pellet is resuspended in 1 ml of buffer A, Dounce homogenized, and finally subjected to polytron mixing (30 seconds). […] Mol. Pharmacol., 41, 873-879, 1992) and finally 50 μl of the bead/protein mixture. (final concentrations: beads, 200 μg/well; protein, 5 μg/well; […] The plates are shaken for 2 h before reading on a Microbeta plate reader.

Sequence of recombinant human FLAP protein (P20292 whole entry): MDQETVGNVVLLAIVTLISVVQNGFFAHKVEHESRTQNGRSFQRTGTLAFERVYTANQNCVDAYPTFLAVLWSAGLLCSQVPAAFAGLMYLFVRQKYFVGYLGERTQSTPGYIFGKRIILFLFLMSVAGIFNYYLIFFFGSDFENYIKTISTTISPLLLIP

As for `C[C@@H](O)CNc1ccc(-c2nc(C3(c4ccc(-c5cnc(N)nc5)nc4)CCC3)no2)cn1` [Example 44, (2R)-1-{[5-(3-{1-[6-(2-aminopyrimidin-5-yl)pyridin-3-yl]cyclobutyl}-1,2,4-oxadiazol-5-yl)pyridin-2-yl]amino}propan-2-ol], the figures for the IC50 in assay [1] and in assay [2] were 100 nM and 2.7 nM, respectively.

For the compound `CN(C(=O)Cn1cc(-c2nc(C3(c4ccc(-c5cnc(N)nc5)nc4)CCC3)no2)cn1)C(C)(C)C` [Example 143, 2-[4-(3-{1-[6-(2-aminopyrimidin-5-yl)pyridin-3-yl]cyclobutyl}-1,2,4-oxadiazol-5-yl)-1H-pyrazol-1-yl]-N-tert-butyl-N-methylacetamide], the IC50 in assay [1] was 260 nM; in assay [2], 14 nM.

Consider `CS(=O)(=O)CCNc1ccc(-c2nc(C3(c4ccc(-c5cnc(N)nc5)nc4)CCC3)no2)cn1` [Example 51, 5-(5-{1-[5-(6-{[2-(methylsulfonyl)ethyl]amino}pyridin-3-yl)-1,2,4-oxadiazol-3-yl]cyclobutyl}pyridin-2-yl)pyrimidin-2-amine], for which the IC50 came out at 150 nM in assay [1] and 4.8 nM in assay [2].

For the compound `CNc1cnc(-c2ccc(C3(c4noc(-c5cnn(C6COC6)c5)n4)CCC3)cn2)cn1` [Example 176, Methyl-[5-(5-{1-[5-(1-oxetan-3-yl-1H-pyrazol-4-yl)-[1,2,4]oxadiazol-3-yl]-cyclobutyl}-pyridin-2-yl)-pyrazin-2-yl]-amine], the 50% inhibitory concentration (IC50) amounted to 73 nM in assay [1] and 23 nM in assay [2].

Regarding `Nc1ncc(-c2ccc(C3(c4noc(-c5cncs5)n4)CCC3)cn2)cn1` [Example 123, 5-(5-{1-[5-(1,3-thiazol-5-yl)-1,2,4-oxadiazol-3-yl]cyclobutyl}pyridin-2-yl)pyrimidin-2-amine], the IC50 in assay [1] was determined as 790 nM; in assay [2], 31 nM.

As for `CC(C)(C#N)Cn1cc(-c2nc(C3(c4ccc(-c5cnc(N)nc5)nc4)CCC3)no2)cn1` [Example 148, 3-[4-(3-{1-[6-(2-amino-pyrimidin-5-yl)-pyridin-3-yl]-cyclobutyl}-[1,2,4]oxadiazol-5-yl)-pyrazol-1-yl]-2,2-dimethyl-propionitrile], the IC50 was 200 nM in assay [1] and 25 nM in assay [2].

On to `N#Cc1ccc(-c2nc(C3(c4ccc(-c5cnc(N)nc5)nc4)CCC3)no2)cn1` [Example 83, 5-(3-{1-[6-(2-aminopyrimidin-5-yl)pyridin-3-yl]cyclobutyl}-1,2,4-oxadiazol-5-yl)pyridine-2-carbonitrile], for which the IC50 amounted to 410 nM in assay [1] and 52 nM in assay [2].

In the case of `Nc1ncc(-c2ccc(C3(c4noc(-c5cn[nH]c5)n4)CCC3)cn2)cn1` [Example 90, 5-(5-{1-[5-(1H-pyrazol-4-yl)-1,2,4-oxadiazol-3-yl]cyclobutyl}pyridin-2-yl)pyrimidin-2-amine], the IC50 in assay [1] worked out at 140 nM; in assay [2] it was 7 nM.

For the compound `Nc1ncc(-c2ccc(C3(c4noc(-c5cccnc5C(F)(F)F)n4)CCC3)cn2)cn1` [Example 109, 5-[5-(1-{5-[2-(trifluoromethyl)pyridin-3-yl]-1,2,4-oxadiazol-3-yl}cyclobutyl)pyridin-2-yl]pyrimidin-2-amine], the half-maximal inhibitory concentration (IC50) in assay [1] worked out at 1500 nM; in assay [2], 14 nM.

Consider `Nc1ncc(-c2ccc(C3(c4noc(-c5c[nH]nn5)n4)CCC3)cn2)cn1` [Example 14, 5-(5-{1-[5-(1H-1,2,3-triazol-4-yl)-1,2,4-oxadiazol-3-yl]cyclobutyl}pyridin-2-yl)pyrimidin-2-amine], for which the IC50 in assay [1] is greater than 5000 nM; in assay [2], 140 nM.

As for `Nc1ncc(-c2ccc(C3(c4noc(-c5ccc(N6CCC[C@H]6C(=O)O)nc5)n4)CCC3)cn2)cn1` [Example 35, 1-[5-(3-{1-[6-(2-aminopyrimidin-5-yl)pyridin-3-yl]cyclobutyl}-1,2,4-oxadiazol-5-yl)pyridin-2-yl]-L-proline], the 50% inhibitory concentration (IC50) in assay [1] is greater than 5000 nM; in assay [2] it was 43 nM.

Consider `Nc1ncc(-c2ccc(C3(c4noc(-c5cccnc5Cl)n4)CCC3)cn2)cn1` [Example 84, 5-(5-{1-[5-(2-chloropyridin-3-yl)-1,2,4-oxadiazol-3-yl]cyclobutyl}pyridin-2-yl)pyrimidin-2-amine], for which the IC50 in assay [1] came out at 280 nM; in assay [2], 4.1 nM.

Regarding `Cn1cc(-c2nc(C3(c4ccc(-c5cnc(N)nc5)nc4)CCC3)no2)c(C(F)(F)F)n1` [Example 20, 5-[5-(1-{5-[1-methyl-3-(trifluoromethyl)-1H-pyrazol-4-yl]-1,2,4-oxadiazol-3-yl}cyclobutyl)pyridin-2-yl]pyrimidin-2-amine], the half-maximal inhibitory concentration (IC50) in assay [1] stood at 530 nM; in assay [2], 9.2 nM.

Turning to `CC(C)Nc1ccc(-c2nc(C3(c4ccc(-c5cnc(N)nc5)nc4)CCC3)no2)cn1` [Example 114, 5-[5-(1-{5-[6-(propan-2-ylamino)pyridin-3-yl]-1,2,4-oxadiazol-3-yl}cyclobutyl)pyridin-2-yl]pyrimidin-2-amine], the IC50 was determined as 280 nM in assay [1] and 1.5 nM in assay [2].

Take `Nc1ncc(-c2ccc(C3(c4noc(-c5ccncc5)n4)CCOCC3)nc2)cn1` [Example 138, 5-(6-{4-[5-(pyridin-4-yl)-1,2,4-oxadiazol-3-yl]tetrahydro-2H-pyran-4-yl}pyridin-3-yl)pyrimidin-2-amine]: the half-maximal inhibitory concentration (IC50) in assay [1] is greater than 5000 nM; in assay [2], 970 nM.

With `Nc1ncc(-c2ccc(C3(c4noc(-c5cccc(S(N)(=O)=O)c5)n4)CCC3)cn2)cn1` [Example 19, 3-(3-{1-[6-(2-aminopyrimidin-5-yl)pyridin-3-yl]cyclobutyl}-1,2,4-oxadiazol-5-yl)benzenesulfonamide], the IC50 in assay [1] was greater than 5000 nM; in assay [2], 58 nM.

Turning to `CS(=O)(=O)C1CCN(c2ccc(-c3nc(C4(c5ccc(-c6cnc(N)nc6)nc5)CCC4)no3)cn2)C1` (stereo not shown) [Example 52, 5-{5-[1-(5-{6-[3-(methylsulfonyl)pyrrolidin-1-yl]pyridin-3-yl}-1,2,4-oxadiazol-3-yl)cyclobutyl]pyridin-2-yl}pyrimidin-2-amine], the IC50 in assay [1] was found to be 180 nM; in assay [2] it was 2.6 nM.

Regarding `COCCNc1ccc(-c2nc(C3(c4ccc(-c5cnc(N)nc5)nc4)CCC3)no2)cn1` [Example 118, 5-{5-[1-(5-{6-[(2-methoxyethyl)amino]pyridin-3-yl}-1,2,4-oxadiazol-3-yl)cyclobutyl]pyridin-2-yl}pyrimidin-2-amine], the concentration for half-maximal inhibition (IC50) in assay [1] came to 84 nM; in assay [2] it was 2.8 nM.

Regarding `Nc1ncc(-c2ccc(C3(c4noc(-c5ccc(N6CCN(CCC(=O)O)CC6)nc5)n4)CCC3)cn2)cn1` [Example 53, 3-{4-[5-(3-{1-[6-(2-aminopyrimidin-5-yl)pyridin-3-yl]cyclobutyl}-1,2,4-oxadiazol-5-yl)pyridin-2-yl]piperazin-1-yl}propanoic acid], the IC50 was found to be 2600 nM in assay [1] and 2.6 nM in assay [2].

On to `Nc1ncc(-c2ccc(C3(c4noc(-c5ccc(N6CCN[C@H](C(=O)O)C6)nc5)n4)CCC3)cn2)cn1` [Example 41, (2S)-4-[5-(3-{1-[6-(2-aminopyrimidin-5-yl)pyridin-3-yl]cyclobutyl}-1,2,4-oxadiazol-5-yl)pyridin-2-yl]piperazine-2-carboxylic acid], for which the IC50 in assay [1] was greater than 5000 nM; in assay [2] it was 7.7 nM.
